The source of these data is patent US8513265B2, “[6,6] and [6,7]-bicyclic GPR119 G protein-coupled receptor agonists” (Bristol-Myers Squibb Company, priority 2011, dated 2013).

This assay has as its target T1, GPR119 G protein-coupled receptor (Homo sapiens, UniProt Q8TDV5).
T1 construct: expressed in transfected cells; host or cells: Flp-In-T-REx 293 cells, tetracycline induced
T1 sequence (Q8TDV5 1-335): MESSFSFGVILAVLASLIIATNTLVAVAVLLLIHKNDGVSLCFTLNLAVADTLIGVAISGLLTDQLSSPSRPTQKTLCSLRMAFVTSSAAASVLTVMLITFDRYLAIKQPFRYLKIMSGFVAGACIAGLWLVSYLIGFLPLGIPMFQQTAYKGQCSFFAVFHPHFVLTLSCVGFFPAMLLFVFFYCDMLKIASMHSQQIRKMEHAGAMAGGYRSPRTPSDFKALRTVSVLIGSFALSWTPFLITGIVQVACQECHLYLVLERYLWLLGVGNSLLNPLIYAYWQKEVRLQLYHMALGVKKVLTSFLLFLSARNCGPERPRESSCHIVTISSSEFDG
Nature of the assay: Human Tet-Inducible cAMP Assay (hEC50, Table 1). The assay is classed as cell-based. On the set-up: IA: scale not given here. Conditions: for IA: IA not defined. The protocol:
Human Tet-Inducible cAMP Assay
Cell lines using the Flp-In-T-REx 293 tetracycline inducible gene expression system are cultured in culture medium comprising the following components: DMEM#11965, 10% FBS, 2 mM L-glutamine, 200 ug/ml Hygromycin B, and 15 ug/ml blasticidin.
For cAMP assays, cells are plated on 96 well plates (e.g., BD Falcon: REF 353948, black side, clear bottom, TC surface) at a density of about 4.5×10^4 cells per well in growth medium containing 1.0 ug/ml tetracycline (1.0 mg/ml stock). The cells are then incubated for 48 hours at 37° C.
Following the incubation, the growth medium is removed from the wells and the wells rinsed (once) with the assay buffer included in the Hit Hunter cAMP kit (100 μl/well). Following the wash, 20 μl of assay buffer is added to each well, followed by addition of 10 μl of a 3× concentration compound working solution. The solution is then mixed. The final concentration range of compound is from about 10^−5M to about 10^−11M. The reagents are then incubated at 37° C. at 5% CO2 for 1 hour.
The manufacturer's protocol may be followed for cAMP determination. The Hit Hunter cAMP kit protocol is outlined for the HIT-T15 cAMP assays described above.

Structures can show the parent of a compound that is named as a salt.

`Cc1cc(C#N)ccc1Nc1ncnc2c1OCCN2C1CCN(C(=O)OC(C)C)CC1` [Example 134, Isopropyl 4-(4-(4-cyano-2-methylphenylamino)-6H-pyrimido[5,4-b][1,4]oxazin-8(7H)-yl)piperidine-1-carboxylate] yielded an EC50 of 163 nM and an IA of 0.59.
The like results for `CC(C)(C)OC(=O)N1CCC(N2CCOc3c(Nc4ccc(S(C)(=O)=O)cc4Cl)ncnc32)CC1` [Example 7, tert-Butyl 4-(4-(2-chloro-4-(methylsulfonyl)phenylamino)-6H-pyrimido[5,4-b][1,4]oxazin-8(7H)-yl)piperidine-1-carboxylate] were, in that order, 2.78 nM and 0.81.
`CC(C)(C)OC(=O)N1CCC(N2CCOc3c(Nc4ccc(C(N)=O)cc4Cl)ncnc32)CC1` [Example 47, tert-Butyl 4-(4-(4-carbamoyl-2-chlorophenylamino)-6H-pyrimido[5,4-b][1,4]oxazin-8(7H)-yl)piperidine-1-carboxylate] came in with an EC50 of 163 nM and an IA of 0.78.
The like results for `CC(C)(C)OC(=O)N1CCC(N2CCOc3c(Nc4ccc(-n5ccnc5)cc4Cl)ncnc32)CC1` [Example 154, tert-Butyl 4-(4-(2-chloro-4-(1H-imidazol-1-yl)phenylamino)-6H-pyrimido[5,4-b][1,4]oxazin-8(7H)-yl)piperidine-1-carboxylate] were, in that order, 12.9 nM and 0.65.
The like results for `COc1ccc(Nc2ncnc3c2OCCN3C2CCN(C(=O)OC(C)C)CC2)c(F)c1` [Example 15, iso-Propyl 4-(4-(2-fluoro-4-methoxyphenylamino)-6H-pyrimido[5,4-b][1,4]oxazin-8(7H)-yl)piperidine-1-carboxylate] were, in that order, 188 nM and 0.48.
The like results for `CC(C)OC(=O)N1CCC(N2C(=O)COc3c(Nc4cccnc4Cl)ncnc32)CC1` [Example 127, Isopropyl 4-(4-(2-chloropyridin-3-ylamino)-7-oxo-6H-pyrimido[5,4-b][1,4]oxazin-8(7H)-yl)piperidine-1-carboxylate] were, in that order, 6180 nM and 0.52.
Consider `CC(C)OC(=O)N1CCC(N2CCOc3c(Nc4ccncc4Cl)ncnc32)CC1` [Example 120, Isopropyl 4-(4-(3-chloropyridin-4-ylamino)-6H-pyrimido[5,4-b][1,4]oxazin-8(7H)-yl)piperidine-1-carboxylate], for which the EC50 came out at 181 nM and the IA stood at 0.45.
The like results for `CC(C)(C)OC(=O)N1CCC(N2CCCOc3c(Nc4ccncc4)ncnc32)CC1` [Example 100, tert-Butyl 4-(4-(pyridin-4-ylamino)-7,8-dihydropyrimido[5,4-b][1,4]oxazepin-9(6H)-yl)piperidine-1-carboxylate] were, in that order, 3450 nM and 0.53.
Compound `CC(C)(C)OC(=O)N1CCC(N2C(=O)COc3c(Nc4ccc(S(C)(=O)=O)cc4F)ncnc32)CC1` [Example 26, tert-Butyl 4-(4-(2-fluoro-4-(methylsulfonyl)phenylamino)-7-oxo-6H-pyrimido[5,4-b][1,4]oxazin-8(7H)-yl)piperidine-1-carboxylate] had an EC50 of 8.06 nM and an IA of 0.51.
On to `CC(C)OC(=O)N1CCC(N2CCOc3c(Nc4ccc5c(c4)OCO5)ncnc32)CC1` [Example 132, Isopropyl 4-(4-(benzo[d][1,3]dioxol-5-ylamino)-6H-pyrimido[5,4-b][1,4]oxazin-8(7H)-yl)piperidine-1-carboxylate], for which the midpoint of the response, the EC50, lay at 3400 nM and the IA is on record as 0.37.
On to `COc1ccc(Nc2ncnc3c2OCCN3C2CCN(C(=O)OC(C)C)CC2)cc1` [Example 128, Isopropyl 4-(4-(4-methoxyphenylamino)-6H-pyrimido[5,4-b][1,4]oxazin-8(7H)-yl)piperidine-1-carboxylate], for which it took 3590 nM to reach a half-maximal effect (EC50) and the IA is 0.7.
The like results for `CC(C)(C)OC(=O)N1CCC(N2CCOc3c(Nc4c(Cl)cncc4Cl)ncnc32)CC1` [Example 55, tert-Butyl 4-(4-(3,5-dichloropyridin-4-ylamino)-6H-pyrimido[5,4-b][1,4]oxazin-8(7H)-yl)piperidine-1-carboxylate] were, in that order, 11.1 nM and 0.72.
`CC(C)OC(=O)N1CCC(N2C(=O)CCc3c(Nc4ccc(S(C)(=O)=O)cc4F)ncnc32)CC1` [Example 118, Isopropyl 4-(4-(2-fluoro-4-(methylsulfonyl)phenylamino)-7-oxo-6,7-dihydropyrido[2,3-d]pyrimidin-8 (5H)-yl)piperidine-1-carboxylate] came in with an EC50 of 179 nM and an IA of 0.63.
The like results for `COC(=O)c1ccc(Nc2ncnc3c2OCCN3C2CCN(C(=O)OC(C)(C)C)CC2)c(Cl)c1` [Example 45, tert-Butyl 4-(4-(2-chloro-4-(methoxycarbonyl)phenylamino)-6H-pyrimido[5,4-b][1,4]oxazin-8(7H)-yl)piperidine-1-carboxylate] were, in that order, 158 nM and 0.63.
As for `Cc1ccc(Nc2ncnc3c2OCC(=O)N3C2CCN(C(=O)OC(C)(C)C)CC2)cn1` [Example 69, tert-Butyl 4-(4-(6-methylpyridin-3-ylamino)-7-oxo-6H-pyrimido[5,4-b][1,4]oxazin-8(7H)-yl)piperidine-1-carboxylate], the EC50 stood at 4310 nM and the IA is reported as 0.35.
Take `Cc1ncccc1Nc1cccc2c1OCCN2C1CCN(C(=O)OC(C)(C)C)CC1` [Example 76, tert-Butyl 4-(8-(2-methylpyridin-3-ylamino)-2H-benzo[b][1,4]oxazin-4 (3H)-yl)piperidine-1-carboxylate]: the EC50 was 3390 nM and the IA came out at 0.38.
The like results for `CS(=O)(=O)c1ccc(Nc2ncnc3c2OCCN3C2CCN(C(=O)OCC(F)(F)F)CC2)c(F)c1` [Example 145, 2,2,2-Trifluoroethyl 4-(4-(2-fluoro-4-(methylsulfonyl)phenylamino)-6H-pyrimido[5,4-b][1,4]oxazin-8(7H)-yl)piperidine-1-carboxylate, TFA salt] were, in that order, 11.4 nM and 0.87.
In turn, `Cc1ccc(Nc2ncnc3c2OCC(=O)N3C2CCN(C(=O)OC(C)C)CC2)cn1` [Example 72, iso-Propyl 4-(4-(6-methylpyridin-3-ylamino)-7-oxo-6H-pyrimido[5,4-b][1,4]oxazin-8(7H)-yl)piperidine-1-carboxylate] returned an EC50 of 8580 nM and an IA of 0.34.
With `CC(C)(C)OC(=O)N1CCC(N2CCCOc3c(Nc4c(Cl)cncc4Cl)ncnc32)CC1` [Example 89, tert-Butyl 4-(4-(3,5-dichloropyridin-4-ylamino)-7,8-dihydropyrimido[5,4-b][1,4]oxazepin-9(6H)-yl)piperidine-1-carboxylate], the midpoint of the response, the EC50, lay at 10.3 nM and the IA was 0.65.
In the case of `CCC(C)OC(=O)N1CCC(N2CCOc3c(Nc4ccc(S(C)(=O)=O)cc4F)ncnc32)CC1` (racemic) [Example 146, (±)-sec-Butyl 4-(4-(2-fluoro-4-(methylsulfonyl)phenylamino)-6H-pyrimido[5,4-b][1,4]oxazin-8(7 H)-yl)piperidine-1-carboxylate, TFA salt], the EC50 worked out at 8.52 nM and the IA is listed as 0.88.
Consider `CC(C)OC(=O)N1CCC(N2CCOc3c(Nc4ccc(C(N)=O)cc4Cl)ncnc32)CC1` [Example 49, iso-Propyl 4-(4-(4-carbamoyl-2-chlorophenylamino)-6H-pyrimido[5,4-b][1,4]oxazin-8(7H)-yl)piperidine-1-carboxylate], for which a half-maximal response (EC50) required 196 nM and the IA came out at 0.67.
The like results for `CS(=O)(=O)c1ccc(Nc2ncnc3c2OCCN3C2CCN(c3nc4ccccc4s3)CC2)c(F)c1` [Example 18, 8-(1-(Benzo[d]thiazol-2-yl)piperidin-4-yl)-N-(2-fluoro-4-(methylsulfonyl)phenyl)-7,8-dihydro-6H-pyrimido[5,4-b][1,4]oxazin-4-amine] were, in that order, 198 nM and 0.46.
Turning to `Cc1ncccc1Oc1ncnc2c1OCCN2C1CCN(C(=O)OC(C)C)CC1` [Example 25, iso-Propyl 4-(4-(2-methylpyridin-3-yloxy)-6H-pyrimido[5,4-b][1,4]oxazin-8(7H)-yl)piperidine-1-carboxylate], the response was half-maximal at 4520 nM (EC50) and the IA is reported as 0.27.
The like results for `CC(C)(OC(=O)N1CCC(N2CCOc3c(Nc4ccc(S(C)(=O)=O)cc4F)ncnc32)CC1)C(F)(F)F` [Example 143] were, in that order, 9.74 nM and 0.41.
